Consider three compounds from US4254115A, “Phospholipid derivative with an antilipemic and antiarteriosclerotic effect” (A. Nattermann & Cie. GmbH, priority 1979, dated 1981).

For series [1] the following is noted: background knowledge; cited from earlier work.
Series [2] relates to triton-WR 1339 hyperlipemia (serum lipids). As to the kind of experiment: Acute triton test (1 × therapeutic application) on rats. The format is in vivo. The following applies: for minimal effective dose: Rattus norvegicus, po, 48 h. On the procedure:
(b) Therapeutic application
One hour later the n-oleyl cephalin was orally administered. Forty-eight hours after the triton is administered, serum is analyzed for lipids and evaluated against a control group.

Series [3] shares this test system. As to the kind of experiment: Acute triton test (1 × prophylactic application) on rats. The format is in vivo. How it is done: (a) Prophylactic application
The n-oleyl derivative (i.e., n-oleyl cephalin) was orally administered to the test animals. […] Forty-eight hours after the triton application, serum was analyzed for lipids and compared with a control group.

A further series deals with mouse. As to the kind of experiment: Acute toxicity, mouse. Type of series: in vivo.
For the next series, the system named is rat. As to the kind of experiment: Acute toxicity, rat. Type of series: in vivo.
The subject of the next series is serum lipids. As to the kind of experiment: Biochemical screening (unstressed rat). Type of series: in vivo. Particulars: oral, serum after 4 h. How it is done: (c) Biochemical screening
In accordance with the procedures set forth in Fletcher, M. J., Clin. Chim. […] Four hours later serum was analyzed for lipids and evaluated against a control group.

A further series is described as follows: Acute toxicity, mouse. Type of series: in vivo. Particulars: in vivo.
The next series can be described thus: Acute toxicity, rat. Type of series: in vivo. Particulars: in vivo.
Where [4] appears, read: lowest dose with drop, therapeutic.
[5] abbreviates: oral, 1 h after triton, serum 48 h after triton.
The mark [6] stands for this setting: lowest effective dose, oral, prophylactic.
[7] abbreviates: oral, 24 h before triton, serum 48 h after triton.
The mark [8] stands for this setting: clofibrate, prophylactic, whole test, no single lipid named.

Where two headings read alike, the source gives them in different places.

In the case of `CCCCC/C=C\C/C=C\CCCCCCCC(=O)NC1CCCCC1` [cyclohexyllinolamide], the “antiarteriosclerotic, antilipemic, metabolic or lipid-reducing effect in words” value in series [1] is given as “lipid-reducing effect”.
On to “n-oleylphosphatidylethanolamine [N-oleylcephalin]”, for which, in series [2] (setting [4]), the “Free cholesterol Drop from” value came out at 0.10 mg/kg BW and the “Phospholipids Drop from” value turned out to be 0.10 mg/kg BW. In series [2] (setting [5]), the “Total cholesterol E.D.50” value was 278.86 mg/kg BW and the “Total lipids E.D.50” value is reported as 8.49 mg/kg BW. In series [3] (setting [6]), the “Free cholesterol Effect from” value stood at 0.10 mg/kg BW and the “Total cholesterol Effect from” value was 0.01 mg/kg BW. In addition, in series [3] (setting [7]), the “Phospholipids E.D.50” value is on record as 0.62 mg/kg BW, the “Total lipids E.D.50” value came to 0.29 mg/kg BW and the “Triglycerides E.D.50” value was 0.18 mg/kg BW. In the series with mouse, this compound displayed an LD0 mouse greater than 4640 mg/kg BW and an LD50 mouse greater than 4640 mg/kg BW. In addition, in the series on rat, the LD0 rat is given as greater than 5000 mg/kg BW and the LD50 rat is recorded as greater than 5000 mg/kg BW. In the series with serum lipids, the “Free cholesterol Drop from” value was 50 mg/kg BW, the “Phospholipids Drop from” value amounted to 50 mg/kg BW, the “Total cholesterol Drop from” value is 50 mg/kg BW and the “Total lipids Drop from” value is 50 mg/kg BW. Also, the “Triglycerides Drop from” value in the series with serum lipids is recorded as 50 mg/kg BW.
Regarding `CCOC(=O)C(C)(C)Oc1ccc(Cl)cc1` [Clofibrate, reference compound], the minimal effective dose in series [2] (lowest dose with drop, therapeutic, read-out: Phospholipids Drop from) came out at 500 mg/kg; in series [2] (lowest dose with drop, therapeutic, read-out: Total lipids Drop from) it was 250 mg/kg; in series [2] (lowest dose with drop, therapeutic, read-out: Triglycerides Drop from) it was 250 mg/kg; with serum lipids (read-out: Total cholesterol Drop from) it was 50 mg/kg; in the series on serum lipids (read-out: Total lipids Drop from), 100 mg/kg; in the series with serum lipids (read-out: Triglycerides Drop from), 50 mg/kg. Moreover, in series [2] (therapeutic), the “Free cholesterol No effect up to” value is given as no more than 500 mg/kg BW. Moreover, the “Total cholesterol No effect up to” value in series [2] (therapeutic) is recorded as no more than 500 mg/kg BW. For the same compound, the “Dosing ... very effective” value in series [3] (setting [8]) worked out at 500 mg/kg BW. Further, in series [3] (setting [8]), the “Dosings up to ... ineffective” value is “up to 250 mg/kg BW”. Besides, the LD50 was 2960 mg/kg in the series “Acute toxicity, mouse” and 1100 mg/kg in “Acute toxicity, rat”. Further, the LD0 mouse in the series on mouse was ~ 1470 mg/kg BW. For the same compound, the LD0 rat in the series with rat was ~ 681 mg/kg BW.

By LD50 is commonly meant the dose at which mortality reaches 50%.
